Article PMC12644596 (Scientific Reports, 2025)

Test: MTT test, normal cells, 24 h
Type: cell-based
Settings: human, human dermal adult fibroblasts (HDFa)

Work on `O=[N+]([O-])c1ccc(NCCCCN=C=S)c2nonc12` [NBDC4NCS, N-(4-isothiocyanatobutyl)-7-nitro-2,1,3-benzoxadiazol-4-amine] yielded a viability at 24 h of ~70%.
